Test results reported in ChEMBL document CHEMBL1201862, “PubChem BioAssay data set” (2004).
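Test compounds were applied to cells in 96-well plates for 48 hours at 5 doses. GI50: concentration for 50% inhibition of growth.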 The source made the active and inactive calls. Cut-off read from the data, not from the text of the source: active = GI50 up to about 1.1 µM and inactive = higher.

Tests used:
Test in all cases: growth of human tumour cells (NCI), 48 h
[1] = test system: K562
[2] = test system: OVCAR-4
[3] = test system: SF-539
[4] = test system: Hs-578T
[5] = test system: OVCAR-5
[6] = test system: DU-145
[7] = test system: 786-0
[8] = test system: NCI-H522
[9] = test system: UO-31
[10] = test system: HCC 2998
[11] = test system: LOX IMVI
[12] = test system: MOLT-4
[13] = test system: U-251
[14] = test system: T47D
[15] = test system: A549
[16] = test system: PC-3
[17] = test system: KM12
[18] = test system: SK-MEL-5
[19] = test system: HCT-116
[20] = test system: SK-MEL-2

SMILES	GI50 [1]	GI50 [2]	GI50 [3]	GI50 [4]	GI50 [5]	GI50 [6]	GI50 [7]	GI50 [8]	GI50 [9]	GI50 [10]	GI50 [11]	GI50 [12]	GI50 [13]	GI50 [14]	GI50 [15]	GI50 [16]	GI50 [17]	GI50 [18]	GI50 [19]	GI50 [20]
O=C1c2ccccc2C(=O)c2c(NCCNC(=O)C3CCCN3)ccc(NCCNC(=O)C3CCCN3)c21 (stereo not given)	19.2 µM (inactive)	> 100 µM (inactive)	44.6 µM (inactive)	37.1 µM (inactive)	51.4 µM (inactive)	70.1 µM (inactive)	0.219 µM (active)	19.9 µM (inactive)	31.5 µM (inactive)	35.9 µM (inactive)	0.0415 µM (active)	22.1 µM (inactive)	37.2 µM (inactive)	30 µM (inactive)	> 100 µM (inactive)	67.9 µM (inactive)	23.2 µM (inactive)	88.5 µM (inactive)	2.65 µM (inactive)	> 100 µM (inactive)
CC(=O)NC1C(OCc2ccccc2)OC(CO)C(O)C1OC(C)C(=O)NC(C)C(=O)NC(CCC(=O)NCCCNc1c2ccccc2nc2cccc([N+](=O)[O-])c12)C(N)=O (stereo not given)	1.17 µM (inactive)	5.14 µM (inactive)	3.86 µM (inactive)	6.78 µM (inactive)	2.24 µM (inactive)	1.56 µM (inactive)	2.77 µM (inactive)	1.48 µM (inactive)	2.5 µM (inactive)	1.14 µM (inactive)	3.65 µM (inactive)	3.27 µM (inactive)	1.6 µM (inactive)	16.8 µM (inactive)	1.43 µM (inactive)	0.618 µM (active)	2.57 µM (inactive)	1.01 µM (active)	0.263 µM (active)	1.32 µM (inactive)
COc1cc(C=C2N=C(c3ccccc3)N(n3c(-c4ccccc4)nc4ccccc4c3=O)C2=O)cc(OC)c1OC	45.8 µM (inactive)	27.4 µM (inactive)	18.7 µM (inactive)	15.8 µM (inactive)	38.9 µM (inactive)	27.6 µM (inactive)	21.8 µM (inactive)	20.1 µM (inactive)	31 µM (inactive)	30.7 µM (inactive)	21.6 µM (inactive)	30 µM (inactive)	> 10 µM (inactive)	20.3 µM (inactive)	36.9 µM (inactive)	31.1 µM (inactive)	19.7 µM (inactive)	23.4 µM (inactive)	22.2 µM (inactive)	21.1 µM (inactive)
Oc1ccc2ccccc2c1/C=C/c1ccc2c(Br)cc(Br)c(O)c2n1	3.11 µM (inactive)	9.82 µM (inactive)	2.53 µM (inactive)	12.6 µM (inactive)	7.76 µM (inactive)	12 µM (inactive)	5.2 µM (inactive)	3.56 µM (inactive)	4.05 µM (inactive)	6.97 µM (inactive)	2.6 µM (inactive)	1.59 µM (inactive)	4.54 µM (inactive)	11.6 µM (inactive)	4.74 µM (inactive)	4.57 µM (inactive)	5.4 µM (inactive)	3.36 µM (inactive)	2.96 µM (inactive)	8.34 µM (inactive)
CC[C@](O)(CC(=O)O[C@H]1C(=O)O[C@@H]2C[C@H]3C(C)=CC(=O)[C@@H](O)[C@]3(C)[C@H]3[C@@]4(O)OC[C@]32[C@@H]1[C@@H](C)[C@H]4O)C(C)C	< 0.01 µM (active)	< 0.01 µM (active)	< 0.01 µM (active)	< 0.01 µM (active)	< 0.01 µM (active)	< 0.01 µM (active)	< 0.01 µM (active)	< 0.01 µM (active)	< 0.0122 µM (active)	< 0.01 µM (active)	< 0.01 µM (active)	< 0.01 µM (active)	< 0.01 µM (active)	< 0.01 µM (active)	< 0.01 µM (active)	< 0.01 µM (active)	< 0.01 µM (active)	< 0.01 µM (active)	< 0.01 µM (active)	< 0.01 µM (active)
COC(=O)c1cc(CC2Cc3cc4c(cc3C2)CCC4)cc2c1CCC2	> 100 µM (inactive)	> 100 µM (inactive)	> 100 µM (inactive)	> 100 µM (inactive)	> 100 µM (inactive)	> 100 µM (inactive)	> 100 µM (inactive)	57.4 µM (inactive)	> 100 µM (inactive)	> 100 µM (inactive)	56.5 µM (inactive)	23.7 µM (inactive)	> 100 µM (inactive)	> 100 µM (inactive)	> 100 µM (inactive)	81.8 µM (inactive)	61.5 µM (inactive)	33.9 µM (inactive)	58.7 µM (inactive)	40.4 µM (inactive)
CC[C@H](C)C1=C(O)[N@+]2([O-])Oc3ccc(-c4c(O)c(O)c(-c5ccc(OC(C)=O)cc5)c(OC(C)=O)c4OC(C)=O)cc3O[C@]2([C@@H](C)CC)C(=O)N1O	12.3 µM (inactive)	8.79 µM (inactive)	13.1 µM (inactive)	39.2 µM (inactive)	47.1 µM (inactive)	> 50 µM (inactive)	21.4 µM (inactive)	8.43 µM (inactive)	> 50 µM (inactive)	11.7 µM (inactive)	12.9 µM (inactive)	12.7 µM (inactive)	18.6 µM (inactive)	21.7 µM (inactive)	16.3 µM (inactive)	34 µM (inactive)	29.9 µM (inactive)	20 µM (inactive)	9.86 µM (inactive)	> 50 µM (inactive)
